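Cultured in 96-well plates, cells were exposed to test compound for 48 hours across five concentrations. Abbreviation: GI50, concentration required for 50% inhibition of growth. TGI marks complete inhibition of growth.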
Assays:
Assay in all cases: NCI anticancer screen, dose series, 48 h
HS 578T breast = test system: HS 578T breast
M14 melanoma = test system: M14 melanoma
MCF7 breast = test system: MCF7 breast
TK-10 renal = test system: TK-10 renal
HOP-62 NSCLC = test system: HOP-62 NSCLC
T-47D breast = test system: T-47D breast
LOX IMVI melanoma = test system: LOX IMVI melanoma
UACC-62 melanoma = test system: UACC-62 melanoma
HL-60(TB) leukemia = test system: HL-60(TB) leukemia
SR leukemia = test system: SR leukemia

Structure (SMILES)	TGI (HS 578T breast) [µM]	TGI (M14 melanoma) [µM]	TGI (MCF7 breast) [µM]	TGI (TK-10 renal) [µM]	TGI (HOP-62 NSCLC) [µM]	TGI (T-47D breast) [µM]	TGI (LOX IMVI melanoma) [µM]	TGI (UACC-62 melanoma) [µM]	TGI (HL-60(TB) leukemia) [µM]	GI50 (HS 578T breast) [µM]	GI50 (M14 melanoma) [µM]	GI50 (SR leukemia) [µM]	TGI (SR leukemia) [µM]	GI50 (MCF7 breast) [µM]	GI50 (TK-10 renal) [µM]	GI50 (HOP-62 NSCLC) [µM]	GI50 (LOX IMVI melanoma) [µM]	GI50 (UACC-62 melanoma) [µM]	GI50 (HL-60(TB) leukemia) [µM]	GI50 (T-47D breast) [µM]
CN1c2ccccc2S(=O)(=O)n2c(CCc3ccccc3)nnc21	> 100	> 100	> 100	> 100	> 100	> 100	> 100	> 100	> 100											
COc1ccc(/C=C\c2cc(OC)c(OC)c(OC)c2)c(NS(=O)(=O)c2ccc(Cl)cc2)c1O	37	56.3	> 100	27.7	46.1		15.5	22.6	0.265	0.292	0.0913	0.0306	10.4	0.0384	0.998	0.671	0.153	0.0635	0.0331	
CCn1c(=O)c2c3ccc(OC(C)=O)cc3[nH]c2c2ccc(OC(C)=O)cc21	> 100	> 100	> 100	> 100	> 100	93.9		> 100					> 100							
C/C=C(/C)c1cnc(CC(C)C)c(=O)[nH]1	> 100			> 100	> 100	> 100	> 100	> 100					> 100							
COc1cc2c3c(ncc2c(OC)c1OC)-c1cc2c(cc1C3)OCO2	37.5	> 100	59	46.5		89.8		65.9	4.26	13.3	> 100	0.25	17.6	15.6	19.3			22.4	0.0288	26.2
COC(=O)c1ccc2c(c1)C(=O)c1c-2n(CCCN)c(=O)c2cc(OC)c(OC)cc12	42.1	34.4	29.3	37.3	> 52.9	44.9	32	30.2		18.5	18.7	1.98	4.39	8.79	16.9	6.09	14.6	15.4		18.9
C[C@]12CC[C@H]3[C@@H](CC[C@]4(O)C[C@@H](O)CC[C@]34CO)[C@@]1(O)CC[C@@H]2C1=CC(=O)OC1	> 100	14.5		4.91	3.89	13.9	8.19	11.4	8.23				> 100							
CCCCN(CCCC)CCc1c(C)cc(C)c(CCN(CCCC)CCCC)c1O	8.59	20.8	8.13	> 100	16.8		> 100	29.7	8.17	2.7	3.15	2.16	12.7	2.39	3.03	3.3	2.67	2.86	2.51	
CCOC(=O)Cc1csc(N=Nc2c(O)[nH]c3ccccc23)n1	> 100	> 100	> 100	> 100	> 100	> 100	> 100	> 100	50.7											
CCC[CH2][Sn]1([CH2]CCC)[O]C(=O)c2ccc(N)cc2[O]1		2.18	0.738	1.69	2.82		1.45	1.83	1.67		0.576	0.549		0.152	0.528	1.35	0.287	0.364	0.105	
O=C(N/N=C/c1ccc(Cl)cc1)c1[nH]c2ccc(Cl)cc2c1-c1ccccc1		18.5	21.7	59.7	36.4	> 100	> 37.4	> 52.5	0.393		0.0937	0.133	2.09	0.115	3.3	0.494	0.12	0.191	0.107	38.2
COc1ccc([C@@H](O)c2cc(-c3ncnc4cc(N5CCOCC5)ccc34)c(F)cc2Cl)nn1	15.3	28.5	15.7	17.7	> 100	1.44	24.8		17.7	0.75	4.91	7.06	34.6	0.592	1.95	12.5	2.84		0.36	0.228
COC(=O)[C@@]1(C)CCC[C@]2(C(=O)O)C3Cc4occc4[C@H](C)[C@@H]3CCC21 (some centres not stated)	> 100	> 100		> 100	> 100	> 100		> 100	> 100				> 100							
COc1cc(/C=C/c2ccc(OC)c(OC)c2OC)cc(OC)c1OC		77		> 82.9	32.9		30.8	28.1	> 68				78.5							
O=c1cc(-c2ccccn2)[nH]c2cc(F)ccc12		> 100		> 100	> 100		> 100	> 100	> 100				> 100							
CCCCCCCCCCCCCCCCCCNC(=O)OCC(CNS(=O)(=O)CCC[n+]1cccc2ccccc21)COC (configuration not stated)	5.35	25.9	3.68	31.1	38.9	> 100		8.21	> 100				> 100							
Clc1ccc2c(c1)C(N1CCNCC1)=Nc1ccccc1O2		3.07	3.05	4.72	4.66	4.58	2.87	3.1	3.86		1.68	1.66	4.3	1.62	2.04	2.01	1.54	1.63	1.95	1.91

Source: PubChem BioAssay (NCI)
